# Source: US20170037118A1, “Methods for treating and/or limiting development of diabetes” (Biocrine AB, priority 2013, published 2017)
# System: 12-weeks-old ob/ob islets
# Assay: Caspase 3/7 activity assay (apoptosis)
# Assay type: cell-based, mouse
# Conditions: β-cells from 12-weeks old ob/ob mice incubated overnight with the Ca2+-channel blocker
# Method: ApoCIII expression was measured by real-time qPCR to determine the efficacy of apoCIII knockdown in cultured islets (n=4). […] (c) 25 mM KCl was used to induce depolarization and subsequent Ca^2+ influx (n=9-10). (d) Caspase 3/7 activity in ob/ob islets isolated from animals at 4-, 8- and 12-weeks of age (n=4). (e) Decrease in caspase activity in β-cells from 12-weeks old ob/ob mice either incubated overnight with the Ca^2+-channel blocker verapamil (left column) or exposed to apoCIII antisense (right column) (n=4). Data presented as mean±SEM. *P<0.05, ** P<0.01 by student's t-test or ANOVA (Tukey's post-hoc).
# Caspase assay. Activity of capase 3/7 was determined using SensoLyte™ Homogeneous Rh110 Caspase 3/7 assay kit according to manufacturer's instructions, with modifications (AnaChem, USA). Briefly, islets or cells were harvested, lysed using lysis buffer (AnaChem, USA) and the protein quantified using BCA method. 10 μg of protein was loaded in a black 384-well plate and topped up with the appropriate amount of assay buffer (AnaChem, USA) containing Rh110 Caspase 3/7 Substrate. Plate was incubated in the dark for 1 hour at 24° C. Fluorescence intensity at Ex/Em=490/520nm was measured to determine the relative caspase activity.
# It was determined if reducing endogenous apoCIII affects apoptosis in ob/ob islets. […]
compound,measurement,value
COc1ccc(CCN(C)CCCC(C#N)(c2ccc(OC)c(OC)c2)C(C)C)cc1OC (stereo not shown) [verapamil],reduction of caspase activity,15%
